Assay results reported in PMC9221192, “The Prophylactic and Multimodal Activity of Two Isatin Thiosemicarbazones against Alzheimer’s Disease In Vitro” (Brain Sciences, 2022).

Biological target: T1, soybean lipoxygenase (LOX) (Glycine max, UniProt P08170)
T1 construct: gene LOX1.1
T1 sequence (P08170 1-839): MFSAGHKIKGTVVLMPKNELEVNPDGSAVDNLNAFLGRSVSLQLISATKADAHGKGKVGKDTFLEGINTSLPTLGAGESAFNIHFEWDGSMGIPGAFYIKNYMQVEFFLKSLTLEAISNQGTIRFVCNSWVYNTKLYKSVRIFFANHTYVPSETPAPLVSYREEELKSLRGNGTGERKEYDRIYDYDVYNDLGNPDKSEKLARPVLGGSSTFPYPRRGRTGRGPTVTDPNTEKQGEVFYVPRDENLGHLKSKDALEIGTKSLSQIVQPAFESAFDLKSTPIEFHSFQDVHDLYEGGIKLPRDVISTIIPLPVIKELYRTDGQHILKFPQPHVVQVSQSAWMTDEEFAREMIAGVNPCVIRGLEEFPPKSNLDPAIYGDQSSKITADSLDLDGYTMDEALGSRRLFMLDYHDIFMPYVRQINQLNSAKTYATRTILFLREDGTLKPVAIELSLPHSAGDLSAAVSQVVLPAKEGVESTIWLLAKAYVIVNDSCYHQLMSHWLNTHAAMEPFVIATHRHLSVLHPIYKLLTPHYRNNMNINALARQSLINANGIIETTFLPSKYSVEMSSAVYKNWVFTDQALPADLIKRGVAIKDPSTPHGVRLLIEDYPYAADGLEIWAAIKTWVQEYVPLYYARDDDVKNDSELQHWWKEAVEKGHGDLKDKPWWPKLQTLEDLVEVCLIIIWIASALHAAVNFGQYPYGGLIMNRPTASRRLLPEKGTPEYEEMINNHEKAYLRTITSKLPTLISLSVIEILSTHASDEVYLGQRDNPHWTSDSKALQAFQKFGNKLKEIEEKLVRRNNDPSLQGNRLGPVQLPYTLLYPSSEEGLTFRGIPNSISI
Experiment: UV assay at […] nm, sodium linoleate oxidation, pH […]
Type: biochemical

## O=C1C(=NNC(=S)Nc2ccccc2)c2cc(F)ccc2N1CN1CCCCC1 [FMp]
  IC50: 54 µM

## COc1ccc2c(c1)/C(=N/NC(=S)Nc1ccccc1)C(=O)N2 [M]
  IC50: 60.5 µM
